Measurements: US8133687B2, “Labor biomarkers, methods comprising same, and methods targeting same” (The Trustees of the University of Pennsylvania, priority 2005, dated 2012)
Read-outs that look alike come from different tables or passages of the source. Each block holds one compound with its values, some of them ahead of it. Where no end group is shown, it is not given here.

System: rat aorta-derived A7R5 vascular smooth muscle cells
Type: cell-based
Conditions: for effect on bradykinin response (cell area): added together with 5 nM bradykinin; for effect on cell area when administered without bradykinin: peptide alone; for effect on PGF2α-induced decrease in cell area: with PGF2α (0.56 nM PG in FIG. 10); for effect on oxytocin-induced decrease in cell area: with oxytocin (10 nM OT in FIG. 10)
Protocol: PA gels of controlled stiffness were coated with a nearly constant collagen level (5×10^2 ng/cm^2) as assessed by fluorescent collagen intensities. […] To assess the ability of peptides found in cervicovaginal fluid to activate smooth muscle cells, rat aorta-derived […] vascular smooth muscle cells ([…]; ATCC, Manassas, Va.) were plated onto polyacrylamide gel surfaces (34 kPa) with collagen type 1 (BD Biosciences, San Diego) and covalently pre-attached to the gel surface by sulpho-SANPAH (Pierce, Rockland, Ill.), providing a quantitative and reproducible uterotonics activity assay. Cells were permitted to adhere to the surface for 30 minutes, then were incubated at 37° C. for 4 hours with bradykinin (0-1 μM, Sigma-Aldrich, St. […] Data was fit to a hyperbolic expression using a least squared method, with the half-saturation constant (IC50) representing the intermediate set-point for the system.

[1] = A7R5 cells, listed as potentiation peptide (PP)
[2] = agonist alone, A7R5 cells, 4 hours at 37° C., read-out: IC50 of dose-dependent decrease in cell area

Compound: KAHEFYLAAHPTDALFASP (KAHEFYLAAHPTDALFASP-NH2) [control peptide, same amino acids as the 2.022 kDa peptide, residues ordered randomly, reference compound]
- effect on bradykinin response (cell area) (A7R5 cells): did not affect the bradykinin response
- effect on cell area when administered without bradykinin (A7R5 cells): Neither the 2.022 kDa peptide nor the control peptide had an effect on cell area

Compound: CC[C@H](C)[C@@H]1NC(=O)[C@H](Cc2ccc(O)cc2)NC(=O)[C@@H](N)CSSC[C@@H](C(=O)N2CCC[C@H]2C(=O)N[C@@H](CC(C)C)C(=O)NCC(N)=O)NC(=O)[C@H](CC(N)=O)NC(=O)[C@H](CCC(N)=O)NC1=O [Oxytocin, oxytocin, reference compound]
- IC50 (4 h): 8 nM

- EC50 (with half-saturation dose of bradykinin (5 nM), A7R5 cells, read-out: half-saturation effect of the peptide on the bradykinin response): 9350 nM
Compound: AAHLPAEFTPAVHASLDKF [2.022 kDa peptide, amino acids 110-128 of α-chain hemoglobin]
- effect on bradykinin response (cell area) (A7R5 cells): augmented the bradykinin response
- effect on bradykinin response (cell area) [1]: augmented the 5 nM BK response
- effect on decrease in cell area elicited by maximal doses of bradykinin (bradykinin 1 μM, A7R5 cells): not affected
- effect on cell area when administered without bradykinin (A7R5 cells): Neither the 2.022 kDa peptide nor the control peptide had an effect on cell area
- effect on PGF2α-induced decrease in cell area (A7R5 cells): enhanced by sub-μM amounts
- effect on PGF2α-induced decrease in cell area [1]: augmented the 0.56 nM PG response
- effect on oxytocin-induced decrease in cell area (A7R5 cells): enhanced by sub-μM amounts
- effect on oxytocin-induced decrease in cell area [1]: augmented the 10 nM OT response

- IC50 (agonist alone, A7R5 cells, 4 hours at 37° C., listed as PGF2-α, read-out: IC50 of dose-dependent decrease in cell area): 0.56 nM
- IC50 [2]: 1 nM
Compound: CCCCC[C@H](O)/C=C/[C@@H]1[C@@H](C/C=C\CCCC(=O)O)[C@@H](O)C[C@H]1O [PGF2α, reference compound]

Compound: RPPGFSPFR [Bradykinin, bradykinin, reference compound]
- IC50 [2]: 5 nM
